The values that follow come from paper PMC11254100 (Angewandte Chemie (International ed. in English), 2024).

In this assay the test system is anti-HA mAb clone 12ca5. Type of assay: binding.
On to cyclo(GDVWALYASYA), for which the “enrichment in affinity selection” value is “not enriched in the selection”. For the substance cyclo(GDAGPYDADYA), the “enrichment in affinity selection” value is on record as “enriched”. As for cyclo(GDVGPDAYDYA), the entry is “enriched”.
